According to ChEMBL document CHEMBL1131658, “Potent cyclic urea HIV protease inhibitors with 3-aminoindazole P2/P2' groups” (Bioorg Med Chem Lett, 1998):

How the values were obtained:
[1] = Percentage Bioavailability was evaluated.; format: ADME, organism-based; settings: in vivo; read-out: Bioavailabiility
[2] = Maximum concentration of compound in dog was evaluated.; format: ADME, organism-based, Canis lupus familiaris; settings: in vivo
[3] = Maximum concentration of compound in rat was evaluated.; format: ADME, organism-based; settings: in vivo
[4] = Half life period was evaluated.; format: ADME
MT2 = experiment: Compound was evaluated for accumulation of viral RNA transcripts three days after infection of MT-2 cells with HIV-1 RF; format: functional; settings: Homo sapiens, MT2, 72 h
[5] = target: Human immunodeficiency virus type 1 protease (Human immunodeficiency virus 1, UniProt Q72874); experiment: The compound was evaluated for inhibition of HIV protease
[6] = Ratio of -logKi with respect to inhibition was evaluated; format: functional

| bioavailability [1] [%] | Cmax [2] [nM] | Cmax [3] [nM] | half-life [4] [min] | Structure (SMILES) | IC90 (MT2) [nM] | Ki [5] [nM] | Ratio [6] |
| --- | --- | --- | --- | --- | --- | --- | --- |
| 13 | 1000 | 30 | 120 | O=C1N(Cc2ccc3[nH]ncc3c2)[C@H](Cc2ccccc2)[C@H](O)[C@@H](O)[C@@H](Cc2ccccc2)N1Cc1ccc2[nH]ncc2c1 | 8 | – | – |
| – | – | – | – | CCCNc1[nH]nc2ccc(CN3C(=O)N(Cc4ccc5n[nH]c(NCCC)c5c4)[C@H](Cc4ccccc4)[C@H](O)[C@@H](O)[C@H]3Cc3ccccc3)cc12 | 40 | 0.23 | 2.2 |
| – | – | – | – | O=C1N(Cc2ccc3[nH]nc(NCC4CC4)c3c2)[C@H](Cc2ccccc2)[C@H](O)[C@@H](O)[C@@H](Cc2ccccc2)N1Cc1ccc2[nH]nc(NCC3CC3)c2c1 | 38 | 0.34 | 2.1 |
| – | – | – | – | O=C1N(Cc2ccc3[nH]nc(N4CCCC4)c3c2)[C@H](Cc2ccccc2)[C@H](O)[C@@H](O)[C@@H](Cc2ccccc2)N1Cc1ccc2[nH]nc(N3CCCC3)c2c1 | 120 | 1.3 | 2 |
| – | – | – | – | CCNc1[nH]nc2ccc(CN3C(=O)N(Cc4ccc5n[nH]c(NCC)c5c4)[C@H](Cc4ccccc4)[C@H](O)[C@@H](O)[C@H]3Cc3ccccc3)cc12 | 65 | 0.041 | 3.2 |
| – | – | – | – | Nc1[nH]nc2ccc(CN3C(=O)N(Cc4ccc5n[nH]c(N)c5c4)[C@H](Cc4ccccc4)[C@H](O)[C@@H](O)[C@H]3Cc3ccccc3)cc12 | 2760 | – | 5.4 |
| – | – | – | – | CC(C)Nc1[nH]nc2ccc(CN3C(=O)N(Cc4ccc5n[nH]c(NC(C)C)c5c4)[C@H](Cc4ccccc4)[C@H](O)[C@@H](O)[C@H]3Cc3ccccc3)cc12 | 24 | 0.09 | 2.4 |
| – | – | – | – | CNc1[nH]nc2ccc(CN3C(=O)N(Cc4ccc5n[nH]c(NC)c5c4)[C@H](Cc4ccccc4)[C@H](O)[C@@H](O)[C@H]3Cc3ccccc3)cc12 | 279 | 0.018 | 4.2 |
| – | – | – | – | O=C1N(Cc2ccc3[nH]c(O)nc3c2)[C@H](Cc2ccccc2)[C@H](O)[C@@H](O)[C@@H](Cc2ccccc2)N1Cc1ccc2[nH]c(O)nc2c1 | > 65000 | < 0.01 | – |
| – | – | – | – | Nc1n[nH]c2ccc(CN3C(=O)N(Cc4ccc5[nH]nc(N)c5c4)[C@H](Cc4ccccc4)[C@H](O)[C@@H](O)[C@H]3Cc3ccccc3)cc12 | – | < 0.01 | – |
